Read-outs that look alike come from different tables or passages of the source.
Key:
5-HT1AR = details: read-out: radioligand binding assay Ki; cloned receptors; cited from earlier work
HT-22 cell line = experiment: protection against Aβ1–42, ROS (CellROX); assay type: cell-based, mouse; details: 10 μM pretreatment 1 h, Aβ1–42 35 μM 16 h
Protocol: Cells were cultured in Dulbecco’s modified Eagle’s Medium-high glucose (DMEM, GlutaMAX ThermoFisher) supplemented with 10% inactivated fetal bovine serum heat (Thermo Fisher), 100 IU/mL penicillin (Merck), and 100 μg/mL streptomycin (Merck). Cells were cultured in flasks (area 175 cm^2, Nunc) and incubated at 37 °C, 5% CO2. To measure the neuroprotective effect against Aβ1–42, cells were placed in a 96-well culture plate (5 × 10^3 cells per well, Falcon).
Stock solutions were prepared at a concentration of 10 mM for the tested compounds. A minimum of 1 mg of each tested compound was weighed and dissolved in an appropriate volume of dimethyl sulfoxide (DMSO). Serial dilutions were prepared in DMSO, and then, the diluted compounds were transferred to phosphate-buffered saline (PBS), mixed, and put into a medium with adherent cells. Before the assays, eventual precipitation or opalescence was checked.
Aβ1–42 (Merck) was initially dissolved in 1,1,1,3,3,3- hexafluor-2-propanol (Merck). […] After this time, the Aβ1–42 solution was evaporated by using nitrogen gas. Next, DMSO was added to obtain a 2 mM stock solution of β-amyloid. […]
After the end of incubation with the tested compounds, the supernatant was removed, and cells were incubated with CellROX (5 μM) in DMEM FluoroBrite (ThermoFisher) for 1 h at 37 °C. The results are expressed as a percentage of control (Aβ1–42).

rats = details: acute administration, male Wistar rats, (+)MK-801; cited from earlier work
SH-SY5Y cells [1] = experiment: ROS assay (2',7'DCFH2-DA), rotenone-induced neurotoxicity; assay type: cell-based, human
Protocol: The ROS measurement was assayed by 2′,7′-dichlorofluorescin diacetate (2′, 7′DCFH2-DA, Sigma, no. D6883). The protocol was previously described in detail.[10] […] The following day, all treatments were carried out with warmed HBSS containing 25 mM HEPES (hereafter referred to as HBSS), and during the operational steps, the cells were kept at 37 °C to minimize temperature stress.

5-HT7R = details: read-out: radioligand binding assay Ki; cloned receptors; cited from earlier work
SH-SY5Y cells [2] = experiment: MTS cell viability assay 27 h; assay type: cell-based, human; details: for IC50: SH-SY5Y
Protocol: This study used the human neuroblastoma cell line SH-SY5Y (ATCC no. CRL-2266) to investigate the effect on the neuronal cells. The cells (8 × 10^3 cells/100 μL/well) were seeded in transparent 96-well plates (Thermo Scientific, Nunc, no. 161093) in DMEM/F12 (Gibco, no. 11039021) supplemented with 10% FBS (Gibco, no. 10500-064) and cultured overnight. […] Treatment with the compounds was performed for 27 h. After incubation, the cell viability was examined using an MTS-based CellTiter96 AQueous One Solution Cell Proliferation Assay (Promega, Madison, WI, USA) following the manufacturer’s protocol. Briefly, 20 μL of MTS solution was pipetted into each well containing 100 μL of culture or culture medium (negative control) and incubated at 37 °C for 1 h. The absorbance was measured at 490 nm using a Tecan Spark’s multimode plate reader (Tecan, Männedorf, Switzerland). A reference wavelength of 630 nm was used to subtract the background.

ABCB1 = tested on: ABCB1; set-up: method as in PMID 35228010; details: previous evidence; cited from earlier work
[3] = pharmacokinetics in serum after single i.p. administration; assay type: in vivo, rat; details: for Vd/F: read-out: Vz/F; for half-life: read-out: t1/2λz
Protocol: Standard laboratory food (LSM-B) and filtered water as well as environment enrichment were freely available. Animals were randomly divided into treatment groups using a computer-based random order generator. All of the experiments were performed by two observers unaware of the treatment applied between 9:00 and 14:00 on separate groups of animals.
Rats were injected with the investigated compounds once (in pharmacokinetic studies) and for 21 days (in behavioral studies), and afterward, behavioral tests were conducted and tissue collection was done, as required. For pharmacokinetic studies, animals were fasted prior to dosing by withholding food but not water overnight. After dosing, the food was withheld for an additional 8 h. All animals were used only once. Animals were handled every day and weighed every other day in the chronic part of the experiment. Procedures involving animals and their care were conducted in accordance with current European Community and Polish legislations on animal experimentation. Additionally, all efforts were made to minimize animals’ suffering and to use only the number of animals necessary to produce reliable scientific data. […] The research program complies with the commonly accepted ‘3Rs’ (replacement and reduction of animals, refinement of experimental conditions, and procedures to minimize the harm to animals).
Moreover, five tissues (i.e., brain, heart, lungs, kidneys, and liver) were harvested and rinsed with cold saline. Blood was allowed to clot at room temperature for 15–20 min and then centrifuged (3000 rpm for 10 min). The obtained serum and tissues were stored at −80 °C until analysis.
Peak areas were integrated automatically using an EZChrome Elite v. 3.3.2 software (VWR, Darmstadt, Germany) chromatographic workstation.
The mobile phase consisting of methanol −10 mM potassium dihydrogen phosphate buffer (pH 4.6) and acetonitrile (51:40:9, v/v/v) was passed under vacuum through a 0.22 μm filter membrane.
Before analysis, tissue samples were thawed, weighed (200–250 mg), and placed in 5 mL plastic tubes with four volumes (w/v) of PBS (pH 7.4) and homogenized individually using a MICCRA D-1 homogenizer (ART Prozess & Labortechnik GmbH & Co., Germany). Serum (500 μL) or homogenate samples (500 μL) were mixed with an IS solution ((RS)-4-(4-methylpiperazin-1-yl)-6-(1-phenoxypropyl)-1,3,5-triazin-2-amine), 50 ng/mL in methanol. The samples were alkalized with 50 μL of 4 M sodium hydroxide solution, vortex-mixed, and extracted with 1 mL of ethyl acetate/hexane (30/70, v/v) mixture on a shaker (VXR Vibrax, IKA, Germany) for 20 min. After centrifugation (Eppendorf, Mini Spin Plus, Bionovo, Poland), the organic layers were transferred into new Eppendorf tubes containing 100 μL of methanol and 0.1 M sulfuric acid (10/90, v/v) mixture. Then, the samples were shaken and centrifuged again. Finally, 60–90 μL of each acidic layer was injected into the HPLC system.
The method was validated according to the procedures and acceptance criteria recommended for bioanalytical method validation for pharmacokinetic studies.[45]
The serum concentration–time data were analyzed by a noncompartmental method using the WinNonlin 8.2 nonlinear least-squares regression program (Pharsight Corporation, a Certara Company, Princeton, NJ, USA) to obtain pharmacokinetic parameters. […] The area under the serum concentration–time curve from time zero to time t (AUC0–t), where t is the time of the last measurable sample, was calculated according to the linear trapezoidal rule. The AUC from time zero to infinity (AUC0–∞) was estimated as AUC0–t + Ct/λz, where Ct was the serum concentration of the last measurable sample. The clearance (CL/F) was calculated as D/AUC0–∞, and the volume of distribution based on the terminal phase (Vz/F) was estimated as D/(λz·AUC0–∞), where F is the bioavailability of intraperitoneal administration.

[4] = 1.0 mg/kg i.p., single, 1 mg/kg
[5] = male, Wistar, rat, ip, 0.3 mg/kg i.p., single
[6] = male, Wistar, rat, ip, 0.3 mg/kg, 0.3 mg/kg i.p., single
[7] = male, Wistar, rat, ip, 1.0 mg/kg i.p., single
[8] = male, Wistar, rat, ip, 1 mg/kg, 1.0 mg/kg i.p., single

Structure (SMILES): CN1CCN(c2nc(N)nc(C(C)(C)Sc3ccc4ccccc4c3)n2)CC1 [WA-22, 4-(4-methylpiperazin-1-yl)-6-(2-(naphthalen-2-ylthio)propan-2-yl)-1,3,5-triazin-2-amine]
- Ki (5-HT1AR): 2.29 µM
- decrease of ROS induced by Aβ (HT-22 cell line): only PPK-32 displayed the ability to decrease ROS
- memory-protective action at doses as low as (rats): 0.3 mg/kg
- ROS level (Ctr set as 100%) (SH-SY5Y cells [1]; compound 10 μM pretreatment 1 h, then ROT 32.5 μM 3 h): 128%
- effect on ROS of compound alone (SH-SY5Y cells [1]; without ROT): did not exert any effect
- Ki (5-HT7R): 0.607 µM
- IC50 (SH-SY5Y cells [2]; Homo sapiens, 27 h, read-out: IC50 x̅ ± SD, MTS, SH-SY5Y, 27 h of exposure): > 200 µM
- effect on cell viability (SH-SY5Y cells [2]; all tested concentrations (0–50 μM), 27 h): did not affect cell viability
- IC50 (SH-SY5Y cells [2]; read-out: IC50 x̅ ± SD, MTS, 27 h of exposure): 238 ± 15 µM
- ABCB1 inhibition (ABCB1): potent inhibitor of ABCB1
- Cmax after 1.0 mg/kg i.p. in relation to 0.3 mg/kg i.p. [3]: 3.8 fold
- Cmax ([3]; 0.3 mg/kg i.p., single, 0.3 mg/kg): 18.65 ± 1.87 ng/mL
- Cmax [3, 4]: 71.05 ± 26.52 ng/mL
- Vz/F [3, 4]: 75.43 ± 28.17 L/kg
- t1/2λz [3, 4]: 2.8115 ± 0.7785 h
- AUC(0-t) [3, 5]: 14 ng·h/mL
- CL/F [3, 5]: 255 mL/min/kg
- MRT [3, 5]: 1.61 h
- Tmax [3, 5]: 5 min
- Cmax ([3]; male, Wistar, rat, ip, 0.3 mg/kg, 0.3 mg/kg i.p., single, read-out: Cmax): 18.7 ng/mL
- Vd/F [3, 6]: 28.1 ± 6.41 L/kg
- half-life [3, 6]: 1.29 ± 0.349 h
- AUC(0-inf) ([3]; male, Wistar, rat, ip, 1 mg/kg i.p., single): 55.9 ng·h/mL
- AUC(0-t) [3, 7]: 42.3 ng·h/mL
- CL/F [3, 7]: 313 mL/min/kg
- MRT [3, 7]: 2.7 h
- Tmax [3, 7]: 5 min
- Cmax ([3]; male, Wistar, rat, ip, 1 mg/kg, 1.0 mg/kg i.p., single, read-out: Cmax): 71.1 ng/mL
- Vd/F [3, 8]: 75.4 L/kg
- half-life [3, 8]: 2.81 h

Reference: publication PMC11926880, “Procognitive Potential of Neuroprotective Triazine 5-HT6 Receptor Antagonists Tested on Chronic Activity In Vivo in Rats: Computer-Aided Insight into the Role of Chalcogen-Differences on the Pharmacological Profile” (ACS Chemical Neuroscience, 2025)
